According to the NIST ThermoML archive (doi:10.1007/s10765-005-8096-3):

Experiment: refractive index (Na D-line) (dimensionless); xn = mol fraction of the nth substance listed
Settings: 101 kPa, Liquid, Standard Abbe refractometry

CC(C)c1ccccc1 [isopropylbenzene] + CCCCOC(C)=O
refractive index
Settings	293.15 K	298.15 K	303.15 K	308.15 K	313.15 K
x2 = 0.0521	1.48648	1.48385	1.48124	1.47872	1.47599
x2 = 0.0998	1.48203	1.47941	1.47677	1.47424	1.47156
x2 = 0.151	1.47724	1.47459	1.47198	1.46948	1.4668
x2 = 0.2043	1.47219	1.46954	1.46694	1.46442	1.46178
x2 = 0.2496	1.4679	1.46525	1.46266	1.46014	1.45753
x2 = 0.3036	1.46273	1.46014	1.45758	1.45505	1.45243
x2 = 0.3578	1.45755	1.45496	1.45242	1.44988	1.44725
x2 = 0.4021	1.45329	1.45068	1.44815	1.44562	1.44301
x2 = 0.4514	1.4485	1.44593	1.44338	1.44086	1.43827
x2 = 0.4994	1.44384	1.44127	1.43873	1.43623	1.43363
x2 = 0.555	1.43843	1.43587	1.43334	1.43083	1.42824
x2 = 0.6017	1.43384	1.4313	1.42878	1.42629	1.42372
x2 = 0.65	1.42906	1.42655	1.42403	1.42154	1.41898
x2 = 0.6996	1.42417	1.42165	1.41914	1.41673	1.41413
x2 = 0.7493	1.41919	1.4167	1.41421	1.41175	1.40924
x2 = 0.8007	1.4141	1.41161	1.40915	1.40668	1.40412
x2 = 0.8497	1.4092	1.40674	1.40425	1.4018	1.39927
x2 = 0.8992	1.40425	1.4018	1.39931	1.39691	1.39437
x2 = 0.95	1.39913	1.39675	1.39426	1.39185	1.3894
